According to publication PMC10341893, “Motifs in Natural Products as Useful Scaffolds to Obtain Novel Benzo[d]imidazole-Based Cannabinoid Type 2 (CB2) Receptor Agonists” (International Journal of Molecular Sciences, 2023):
Like-named read-outs stand apart in the source and are kept apart here.

Columns and labels:
[1] = biological target: T1, hCB2 receptor (Homo sapiens, UniProt P34972); assay: Single-dose radioligand displacement assay ([3H]WIN55212-2); format: binding; parameters: host or cells: CHO cells; details: membranes from recombinant CHO cells expressing human CB2, duplicate; for inhibition at 10 µM: read-out: Inhibition (%) of [3H]WIN55212-2 specific binding, 10 µM single dose; for Inhibition (%) of [3H]WIN55212-2 specific binding: 10 µM single dose
T1 sequence (P34972 whole entry): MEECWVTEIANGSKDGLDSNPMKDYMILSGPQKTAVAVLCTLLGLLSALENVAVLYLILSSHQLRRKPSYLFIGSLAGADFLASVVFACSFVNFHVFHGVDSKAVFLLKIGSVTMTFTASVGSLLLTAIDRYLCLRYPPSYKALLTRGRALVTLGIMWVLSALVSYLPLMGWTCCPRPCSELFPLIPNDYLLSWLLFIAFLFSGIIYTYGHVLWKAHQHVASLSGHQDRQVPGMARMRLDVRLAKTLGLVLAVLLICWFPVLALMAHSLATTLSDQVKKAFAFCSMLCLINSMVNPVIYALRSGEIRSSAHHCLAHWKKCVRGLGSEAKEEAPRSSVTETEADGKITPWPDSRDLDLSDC
Description: To assess ligand binding to CB2 receptors, radioligand displacement assay at a single dose (10 μM) was performed in membranes obtained from recombinant CHO cells expressing human CB2 receptors (Eurofins Cerep SA, France). Out of 26 compounds, more than 50% of the molecules presented >50% displacement, while 20% of the compounds (5, 6, 16, 19, 22) presented >80% displacement of radioligand binding at a 10 μM dose. Compounds 5, 6, 16, 19, and 22 were further tested for CB2 receptor activation (agonist activity, see below) and CB2/CB1 selectivity.
All membrane preparations for these studies were generated at Cerep Inc. according to standard protocols. Duplicate determinations were performed for each test compound. Compounds were dissolved in DMSO to generate a stock solution. Radioligand binding methods were adapted from Munro et al..

[2] = biological target: T1, hCB2 receptor; assay: cAMP accumulation assay (forskolin-stimulated, CHO cells expressing hCB2); format: cell-based; details: for agonist activity at CB2 (cAMP accumulation): recombinant cells expressing CB2 receptors
Description: Compounds were further characterized through in vitro functional assays by measuring the variation in forskolin-induced cAMP accumulation (Eurofins Cerep services). The tested compounds diminished the accumulation of cyclic AMP, indicating activity as agonists (Figure 3).
In vitro pharmacology assay for human CB2 agonist effect in CHO cells was performed by Eurofins Cerep (Celle-Lévescault, France). Five compounds were tested at several concentrations for EC50 determination. […] CHO cells stably expressing hCB2 receptor were used to determine agonist effect of compounds, based on the measurement of cAMP level. Assay protocol is adapted from Felder et al..

[3] = biological target: T2, human recombinant CB1R (Homo sapiens, UniProt P21554); assay: CB1 receptor binding assay ([3H]-CP-55,940 displacement, HEK cell membranes)
T2 construct: expressed in transfected cells; host or cells: HEK cells
T2 sequence (P21554 whole entry): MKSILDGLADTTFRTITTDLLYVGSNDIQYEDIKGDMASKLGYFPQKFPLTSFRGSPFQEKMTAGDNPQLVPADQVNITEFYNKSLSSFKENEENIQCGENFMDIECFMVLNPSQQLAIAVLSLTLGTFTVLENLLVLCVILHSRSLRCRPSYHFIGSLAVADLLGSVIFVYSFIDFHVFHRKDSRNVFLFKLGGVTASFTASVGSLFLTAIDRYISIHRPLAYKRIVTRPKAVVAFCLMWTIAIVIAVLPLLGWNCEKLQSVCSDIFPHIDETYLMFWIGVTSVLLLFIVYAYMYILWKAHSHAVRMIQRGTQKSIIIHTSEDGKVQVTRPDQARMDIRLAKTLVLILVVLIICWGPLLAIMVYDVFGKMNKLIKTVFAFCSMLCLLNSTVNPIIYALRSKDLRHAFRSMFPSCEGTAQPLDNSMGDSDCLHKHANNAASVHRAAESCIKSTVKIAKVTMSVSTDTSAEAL
Description: (§1) To assess the compound selectivity between CB1 and CB2 receptors, binding constants were determined through a radioligand displacement assay by testing concentration–response curves for compounds 5, 6, 16, 19, and 22. As shown in Figure 4 and summarized in Table 4, three of the tested compounds (5, 19, and 22) presented moderate binding affinity in a low micromolar range to both CB1 and CB2 receptors.
(§2) CB1 and CB2 receptor binding assays were performed exactly as previously described. […] Displacement curves were performed by incubating [^3H]-CP-55 940 (90 min, 30 °C) with increasing concentrations of compounds (10 nM−10 μM). Ki values were calculated by applying the Cheng−Prusoff equation to the IC50 values (obtained by GraphPad, Prism Software 9.5) for the displacement of the bound radioligand by compounds.

[4] = biological target: T1, hCB2 receptor; assay: CB2 receptor binding assay ([3H]-CP-55,940 displacement, HEK cell membranes); parameters: expressed in transfected cells; host or cells: HEK cells; details: for Ki (CB1)/Ki (CB2): selectivity ratio CB2 over CB1
Description: as §1, §2

[5] = [3H]-CP-55,940 displacement, means ± SD of 3 independent experiments in duplicate, read-out: Ki CB1
[6] = [3H]-CP-55,940 displacement, means ± SD of 3 independent experiments in duplicate, read-out: Ki CB2

SMILES | inhibition at 10 µM [1] | Inhibition (%) of [3H]WIN55212-2 specific binding [1] | further results
CC1CCC(C(C)C)C(Sc2nc3ccccc3n2Cc2cccc3ccccc23)C1 (stereo not shown) [Compound 1, 2-((2-isopropyl-5-methylcyclohexyl)thio)-1-(naphthalen-1-ylmethyl)-1H-benzo[d]imidazole] | 2% |  | 
CC1CCC(C(C)C)C(Sc2nc3ccccc3n2Cc2ccccc2)C1 (stereo not shown) [Compound 2, 1-benzyl-2-((2-isopropyl-5-methylcyclohexyl)thio)-1H-benzo[d]imidazole] | 72% |  | 
CCn1c(SC2CC(C)CCC2C(C)C)nc2ccccc21 (stereo not shown) [Compound 3, 1-ethyl-2-((2-isopropyl-5-methylcyclohexyl)thio)-1H-benzo[d]imidazole] | 69% |  | 
CC1CCC(C(C)C)C(Oc2nc3ccccc3n2Cc2cccc3ccccc23)C1 (stereo not shown) [Compound 4, 2-((2-isopropyl-5-methylcyclohexyl)oxy)-1-(naphthalen-1-ylmethyl)-1H-benzo[d]imidazole] | 37% |  | 
CC1CCC(C(C)C)C(Oc2nc3ccccc3n2Cc2ccccc2)C1 (stereo not shown) [Compound 5, 1-benzyl-2-((2-isopropyl-5-methylcyclohexyl)oxy)-1H-benzo[d]imidazole] | > 80% | 90% | EC50 [2]: 14 nM; agonist activity at CB2 (cAMP accumulation) [2]: agonist activity was confirmed; Ki [3]: 920 ± 1150 nM; Ki [4]: 400 ± 80 nM; Ki (CB1)/Ki (CB2) [4]: 2.3
CC(C)=CCC/C(C)=C/CSc1nc2ccccc2n1Cc1cccc2ccccc12 [Compound 7, (E)-2-((3,7-dimethylocta-2,6-dien-1-yl)thio)-1-(naphthalen-1-ylmethyl)-1H-benzo[d]imidazole] | 42% |  | 
CC(C)=CCC/C(C)=C/CSc1nc2ccccc2n1Cc1ccccc1 [Compound 8, (E)-1-benzyl-2-((3,7-dimethylocta-2,6-dien-1-yl)thio)-1H-benzo[d]imidazole] |  | 71% | 
CCn1c(SC/C=C(\C)CCC=C(C)C)nc2ccccc21 [Compound 9, (E)-2-((3,7-dimethylocta-2,6-dien-1-yl)thio)-1-ethyl-1H-benzo[d]imidazole] | 54% |  | 
CC(C)=CCC/C(C)=C/COc1nc2ccccc2n1Cc1cccc2ccccc12 [Compound 10, (E)-2-((3,7-dimethylocta-2,6-dien-1-yl)oxy)-1-(naphthalen-1-ylmethyl)-1H-benzo[d]imidazole] |  | 40% | 
CC(C)=CCC/C(C)=C/COc1nc2ccccc2n1Cc1ccccc1 [Compound 11, (E)-1-benzyl-2-((3,7-dimethylocta-2,6-dien-1-yl)oxy)-1H-benzo[d]imidazole] | 35% |  | 
CCn1c(OC/C=C(\C)CCC=C(C)C)nc2ccccc21 [Compound 12, (E)-2-((3,7-dimethylocta-2,6-dien-1-yl)oxy)-1-ethyl-1H-benzo[d]imidazole] |  | −3% | 
c1ccc2c(Cn3c(SC45CC6CC(CC(C6)C4)C5)nc4ccccc43)cccc2c1 [Compound 13, 2-(adamantan-1-ylthio)-1-(naphthalen-1-ylmethyl)-1H-benzo[d]imidazole] | 30% |  | 
c1ccc(Cn2c(SC34CC5CC(CC(C5)C3)C4)nc3ccccc32)cc1 [Compound 14, 2-(adamantan-1-ylthio)-1-benzyl-1H-benzo[d]imidazole] |  | 69% | 
CCn1c(SC23CC4CC(CC(C4)C2)C3)nc2ccccc21 [Compound 15, 2-(adamantan-1-ylthio)-1-ethyl-1H-benzo[d]imidazole] |  | 63% | 
c1ccc(Cn2c(OC34CC5CC(CC(C5)C3)C4)nc3ccccc32)cc1 [Compound 16, 2-(adamantan-1-yloxy)-1-benzyl-1H-benzo[d]imidazole] | > 80% | 86% | EC50 [2]: 20 nM; agonist activity at CB2 (cAMP accumulation) [2]: agonist activity was confirmed; Ki [3]: > 10000 nM; Ki [4]: 630 ± 190 nM
CCn1c(OC23CC4CC(CC(C4)C2)C3)nc2ccccc21 [Compound 17, 2-(adamantan-1-yloxy)-1-ethyl-1H-benzo[d]imidazole] |  | 61% | 
COc1ccc(CSc2nc3ccccc3n2Cc2cccc3ccccc23)cc1 [Compound 18, 2-((4-methoxybenzyl)thio)-1-(naphthalen-1-ylmethyl)-1H-benzo[d]imidazole] |  | 46% | 
COc1ccc(CSc2nc3ccccc3n2Cc2ccccc2)cc1 [Compound 19, 1-benzyl-2-((4-methoxybenzyl)thio)-1H-benzo[d]imidazole] | > 80% | 88% | agonist activity at CB2 (cAMP accumulation) [2]: agonist activity was confirmed; Ki [3, 5]: 1230 ± 880 nM; Ki [4, 6]: 930 ± 290 nM; Ki (CB1)/Ki (CB2) [4]: 1.3
CCn1c(SCc2ccc(OC)cc2)nc2ccccc21 [Compound 20, 1-ethyl-2-((4-methoxybenzyl)thio)-1H-benzo[d]imidazole] | 63% |  | 
COc1cccc(Oc2nc3ccccc3n2Cc2cccc3ccccc23)c1 [Compound 21, 2-(3-methoxyphenoxy)-1-(naphthalen-1-ylmethyl)-1H-benzo[d]imidazole] |  | 62% | 
COc1cccc(Oc2nc3ccccc3n2Cc2ccccc2)c1 [Compound 22, 1-benzyl-2-(3-methoxyphenoxy)-1H-benzo[d]imidazole] | > 80% | 84% | agonist activity at CB2 (cAMP accumulation) [2]: agonist activity was confirmed; Ki [3, 5]: 2040 ± 1220 nM; Ki [4, 6]: 600 ± 520 nM; Ki (CB1)/Ki (CB2) [4]: 3.4
CCn1c(Oc2cccc(OC)c2)nc2ccccc21 [Compound 23, 1-ethyl-2-(3-methoxyphenoxy)-1H-benzo[d]imidazole] | 54% |  | 
CCCCCCC(C)(C)c1cc(OC)cc(Oc2nc3ccccc3n2Cc2cccc3ccccc23)c1 [Compound 24, 2-(3-methoxy-5-(2-methyloctan-2-yl)phenoxy)-1-(naphthalen-1-ylmethyl)-1H-benzo[d]imidazole] | 32% |  | 
CCCCCCC(C)(C)c1cc(OC)cc(Oc2nc3ccccc3n2Cc2ccccc2)c1 [Compound 25, 1-benzyl-2-(3-methoxy-5-(2-methyloctan-2-yl)phenoxy)-1H-benzo[d]imidazole] | 33% |  | 
CCCCCCC(C)(C)c1cc(OC)cc(Oc2nc3ccccc3n2CC)c1 [Compound 26, 1-ethyl-2-(3-methoxy-5-(2-methyloctan-2-yl)phenoxy)-1H-benzo[d]imidazole] | 49% |  | 
